{"source": "ChEMBL document CHEMBL5726780", "about": "“Fused tricyclic compounds as Raf kinase inhibitors” (2018)"}
{"assay": "Time-Resolved Fluorescence Energy Transfer Assay: Compounds disclosed herein were tested against B-Raf (V600E) (PV3849, from Invitrogen) or C-Raf (Y340D/Y341D) (PV3805, from Invitrogen) in a time-resolved fluorescence energy transfer assay. The assay was carried out in reactions (10 μL) containing 0.0625 nM B-Raf or 0.5 nM C-Raf, 25 mM Tris pH7.4, 10 mM MgCl2, 0.5 mM EGTA, 0.5 mM […], 5 mM beta-glycerophosphate, 0.01% Triton X-100, 2.5 mM DTT, 0.1% BSA, 0.1 mM ATP, 13.7 nM GST-tagged MEK1 (Full-length protein with K97R mutation, recombinant protein purified from bacterial expression system) and 0-5 μM compounds disclosed herein (final concentration of 1% DMSO). The enzyme was incubated with the compounds at room temperature for 60 minutes and the reactions were initiated by the addition of ATP and GST-MEK1. After incubating at room temperature for 60 minutes, an equal volume of stop buffer containing 25 mM Tris pH7.4, 400 mM KF, 50 mM EDTA, 0.01% BSA, 0.01% Triton X-100, 1 test of Eu3+ Cryptate-conjugated rabbit polyclonal antibody anti-Phospho MEK1/2 (Ser217/221) and 1 test of d2-conjugated mouse monoclonal antibody anti-glutathione S-transferase was added to stop the reactions. Plates were sealed and incubated at room temperature for 2 hours, and then the TR-FRET signals were read on BMG PHERAstar FS instrument.", "units": {"IC50": "nM"}}
{"smiles": "O=C1CCc2c(Oc3ccc4c(c3)C3C(C4)C3C(=O)Nc3ccccc3S)ccnc2N1", "note": "(centres undefined)", "IC50": 5.5}
{"smiles": "O=C1CCc2c(Oc3ccc4c(c3)C3C(O4)C3c3nc4ccc(Br)cc4[nH]3)ccnc2N1", "note": "(centres undefined)", "IC50": 81}
{"smiles": "CNC(=O)Nc1cc(Oc2ccc3c(c2)C2C(O3)C2c2nc3ccc(C(F)(F)F)cc3[nH]2)ccn1", "note": "(centres undefined)", "IC50": 6.5}
{"smiles": "O=C1CCc2c(Oc3ccc4c(c3)C3C(O4)C3C(=O)OCC(=O)c3ccccc3)ccnc2N1", "note": "(centres undefined)", "IC50": "< 0.25"}
